# In patent US9180107B2 (NANOPHARMACEUTICALS LLC, priority 2009, dated 2015):
# Key:
# [1] = Turnover rate (stability) of tetrac in the culture system; type: physicochemical
# Procedure: In LC/MS/MS experiments, medium samples (20 μL) were injected onto an HP 1100 series HPLC system (Agilent Technologies, Palo Alto, Calif., USA), equipped with a narrow-bore column Zorbax Eclipse XDB-C18 (5 μm, 150×2.1 mm; Agilent). Separation was performed using a mobile phase of 0.1% (v/v) acetic acid (A) and 100% acetonitrile (B), with a linear gradient of 20-60% B over 25 min. Flow rate was maintained at 0.2 mL min^−1 and elution was monitored by a diode array detector (200-600 nm). The LC effluent was then introduced into a turbo ion-spray source on a Q/STAR-XL quadruple/time-of-flight (TOF) hybrid mass spectrometer (Applied Biosystems, Foster City, Calif., USA). Negative ESI mass spectra were acquired over the range from m/z 100 to 400. The electrospray voltage was set at −4.5 kV and the source temperature was maintained at 475° C. […]
# Human glioblastoma U87MG cells were treated with different concentrations of tetrac (10^−9-10^−5M) for 7 d and tetrac was replenished daily. The turnover rate of tetrac in the culture system was measured. Tetrac detected was 75% of the original concentration after 24 h incubation in medium with 10% FBS in the absence of cells at both room temperature and 37° C. […]
# [2] = test system: Human adenoid cystic carcinoma TGS112T cells; assay: PCNA western blot (thyroid hormone-induced proliferation); type: cell-based
# Description: The techniques have been described in a number of publications. (See Davis et al., 2006. Cancer Res. 66:7270-7275; Lin et al., 2007. Steroids. 72:180-187; Lin et al., 2008. Carcinogenesis. 29:62-69; and Davis et al., 2004. Circ Res. 94:1500-1506, each of which is herein incorporated by reference in its entirety). Nucleoproteins were separated on discontinuous SDS-PAGE (9% gels) and the proteins transferred by electroblotting to nitrocellulose membranes (Millipore, Bedford, Mass.). After blocking with 5% milk in Tris-buffered saline containing 0.1% Tween, the membranes were incubated with selected primary antibodies overnight. The secondary antibodies were either goat anti-rabbit IgG (1:1000, Dako, Carpenteria, Calif.) or rabbit anti-mouse IgG (1:1000, Dako), depending upon the origin of the primary antibody. Immunoreactive proteins were then detected by chemiluminescence.
# Human adenoid cystic carcinoma TGS112T cells were cultured in medium that contained 0.25% hormone-stripped serum for 2 d and then treated with 10^−7 M tetrac or nano-tetrac for 30 min prior institution of 10^−7 M T4 treatment for 24 h. Nuclear proteins were separated by SDS-PAGE followed by western blot analysis with proliferating-cell nuclear antigen (PCNA) antibody. Thyroid hormone-induced PCNA accumulation was inhibited by tetrac. (See FIG. 6A). […] (See FIG. 6A). Inhibition of thyroid hormone-induced proliferation was confirmed by inhibition by tetrac and nano-tetrac of thyroid hormone-induced accumulation and [^3H]-thymidine incorporation. (See FIG. 6B). […] (See FIG. 6B). […] The effect of nano-tetrac and tetrac on cell proliferation was examined by counting TGS112T cells which were treated daily with 10^−6 M tetrac or 10^−6 M nano-tetrac. […] (See FIG. 6C).
# TGS112T cells = assay: Cell proliferation by cell counting; type: cell-based, human; settings: treated daily with 10^−6 M
# Procedure: FIG. 6 is a series of graphs showing the effects of tetrac and nano-tetrac in human adenoid cystic carcinoma (TGS112T). In FIG. 6A, TGS112T cancer cells were treated with 10^−7M T4 in the presence or absence of 10^−7M tetrac for 24 h. T4-induced PCNA expression was inhibited by tetrac. In FIG. 6B, TGS112T cancer cells were treated with 10^−7 M T4 in the presence or absence of 10^−7 M tetrac or nano-tetrac, daily and 1 μCi [^3H]-thymidine (final concentration, 13 nM) was added for 24 h. […] In FIG. 6C, TGS112T cells were treated daily with 10^−6 M tetrac or nano-tetrac. Cells were harvested at the time points as indicated. Total cell numbers taken after each treatment were used as indicator for tetrac- or nano-tetrac-induced anti-proliferation.
# Human adenoid cystic carcinoma TGS112T cells were cultured in medium that contained 0.25% hormone-stripped serum for 2 d and then treated with 10^−7 M tetrac or nano-tetrac for 30 min prior institution of 10^−7 M T4 treatment for 24 h. Nuclear proteins were separated by SDS-PAGE followed by western blot analysis with proliferating-cell nuclear antigen (PCNA) antibody. Thyroid hormone-induced PCNA accumulation was inhibited by tetrac. (See FIG. 6A). […] (See FIG. 6A). Inhibition of thyroid hormone-induced proliferation was confirmed by inhibition by tetrac and nano-tetrac of thyroid hormone-induced accumulation and [^3H]-thymidine incorporation. […]
# [3] = test system: human embryonic kidney 293T cells; assay: Proliferation of non-malignant cells; type: cell-based; settings: 10^−6M daily for 7 days
# Procedure: FIG. 9 is a series of graphs showing the comparison of nano-tetrac and tetrac on cell proliferation in non-malignant cells. CV-1 cells (FIG. 9A) and 293 T cells (FIG. 9B) were treated daily with 10^−6 M tetrac or nano-tetrac. Cells were harvested at the time points indicated. Total cell numbers taken after each treatment were used as an indicator for tetrac- or nano-tetrac-induced anti-proliferation.
# In order to confirm that tetrac and nano-tetrac only suppress cell proliferation in cancer cells, tetrac and nano-tetrac were also examined for potential anti-proliferative effects on immortalized non-malignant cells, using monkey kidney epithelial CV-1 cells and human embryonic kidney 293T cells. The cells were treated daily with either 10^−6M tetrac or 10^−6M nano-tetrac for 7 days, then were harvested, counted and examined microscopically.
smiles,measurement,setting,value
"O=C(O)Cc1cc(I)c(Oc2cc(I)c(O)c(I)c2)c(I)c1 [tetrac, Tetraiodothyroacetic acid]","Tetrac detected, % of the original concentration","[1]; 24 h incubation in medium with 10% FBS, absence of cells, room temperature and 37° C.",75%
same,tetrac decay,[1]; incubated with cell cultures at 37° C.,12%
same,Thyroid hormone-induced PCNA accumulation,"[2]; 10^−7 M tetrac, 10^−7 M T4, 24 h",inhibited
same,Proliferation of TGS112T cells (agent alone),"[2]; 10^−7 M, 24 h",little effect alone
same,cell count after 7 d,TGS112T cells,3.65×10^8 cells
same,change in cell numbers and morphology vs untreated control,[3],no significant change
